Experimental data as given in patent publication US4349546A, “D-Allose derivative and preparation method therefor” (Wakamoto Pharmaceutical Co., Ltd., priority 1980, dated 1982).

Key:
tumor = conditions: background statement; cited from earlier work
[1] = tested on: early stage encephalophyma, melanoma, lymphoma; conditions: background statement; cited from earlier work
[2] = tested on: Peripheral leukocyte count; assay: Effects on peripheral leukocyte count (Test Example 6); format: in vivo, DDY mice
From the text: Comparison of effects of CNUA and Me-CCNU* on peripheral leukocyte count:
Six-week old DDY mice each weighing 22±1 g; one group comprising 5 male mice.
CNUA and Me-CCNU were given intraperitoneally on the first day. The, blood was drawn from a tail vein at time intervals to determine the leukocyte count. The samples were used in the form of a solution in an isotonic sodium chloride solution.

Q: With `O=NN(CCCl)C(=O)N[C@H]1C(O)O[C@H](CO)[C@@H](O)[C@@H]1O` (stereo partly drawn) [chlorozotocin] as the molecule, how does the antitumor effects (tumor) read?
A: Its antitumor effects is “exhibit antitumor effects”.

Q: With `O=NN(CCCl)C(=O)NCCCl` [BCNU, 1,3-bis-(2-chloroethyl)-1-nitrosourea] as the molecule, how does the effectiveness against tumors [1] read?
A: The effectiveness against tumors was “effective against early stage encephalophyma, melanoma, lymphoma”.

Q: Which effectiveness against tumors [1] does the source give for `O=NN(CCCl)C(=O)NC1CCCCC1` [CCNU, 1-(2-chloroethyl)-3-cyclohexyl-1-nitrosourea] here?
A: Its effectiveness against tumors is “effective against early stage encephalophyma, melanoma, lymphoma”.

Q: Which “Peripheral leukocyte count after the administration” value (from here on “Peripheral leukocyte count”) ([2]; 20 mg/kg ip, 2 day) does the source give for `C[C@H]1CC[C@H](NC(=O)N(CCCl)N=O)CC1` [Me-CCNU, 1-(2-chloroethyl)-3-(trans-4-methylcyclohexyl)-1-nitrosourea, reference compound] here?
A: Its value is 55.0 % based on the control.

Q: And the “Peripheral leukocyte count” value ([2]; 20 mg/kg ip, 4 day)?
A: Its value is 53.3 % based on the control.

Q: And the “Peripheral leukocyte count” value ([2]; 20 mg/kg ip, 7 day)?
A: Its value is 50.2 % based on the control.

Q: And the “Peripheral leukocyte count” value ([2]; 20 mg/kg ip, 10 day)?
A: The value was 59.5 % based on the control.

Q: What about the “Peripheral leukocyte count” value ([2]; 20 mg/kg ip, 14 day) of the same molecule?
A: The value was 145 % based on the control.

Q: And the “Peripheral leukocyte count” value ([2]; 40 mg/kg ip, 2 day)?
A: Its value is 56.0 % based on the control.

Q: What about the “Peripheral leukocyte count” value ([2]; 40 mg/kg ip, 4 day) of the same molecule?
A: The value was 36.5 % based on the control.

Q: What about the “Peripheral leukocyte count” value ([2]; 40 mg/kg ip, 7 day) of the same molecule?
A: Its value is 34.0 % based on the control.

Q: And the “Peripheral leukocyte count” value ([2]; 40 mg/kg ip, 10 day)?
A: Its value is 40.7 % based on the control.

Q: What about the “Peripheral leukocyte count” value ([2]; 40 mg/kg ip, 14 day) of the same molecule?
A: The value was 78.1 % based on the control.

Q: What about the effectiveness against tumors [1] of the same molecule?
A: The effectiveness against tumors was “effective against early stage encephalophyma, melanoma, lymphoma”.

Q: With `CN(N=O)C(=O)N[C@H]1C(O)O[C@H](CO)[C@@H](O)[C@@H]1O` (stereo partly drawn) [streptozotocin] as the molecule, how does the antitumor effects (tumor) read?
A: Its antitumor effects is “exhibit antitumor effects”.
